Results from US8802597B2, “Herbicidal pyrimidines” (E I du Pont de Nemours and Company, priority 2003, dated 2014).

Assays:
Assay in all cases: Test G pre/postemergence
Assay type in all cases: in vivo
[1] = tested on: common chickweed (Stellaria media)
Outline: (§1)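 Seeds or nutlets were planted and treated preemergence with compound formulated in a non-phytotoxic solvent mixture containing surfactant; plants 2 to 18 cm tall (1- to 4-leaf stage) received postemergence sprays of the same formulation. After 12 to 21 days in a greenhouse, injury was rated visually against untreated controls on a 0–100 scale (100 = complete control).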

[2] = tested on: Surinam grass (Brachiaria decumbens)
Outline: as §1

[3] = tested on: downy bromegrass (Bromus tectorum)
Outline: as §1

[4] = tested on: bermudagrass (Cynodon dactylon)
Outline: as §1

[5] = tested on: black mustard (Brassica nigra)
Outline: as §1

[6] = tested on: southern sandbur (Cenchrus echinatus)
Outline: as §1

[7] = tested on: guineagrass (Panicum maximum)
Outline: as §1

[8] = tested on: prickly sida (Sida spinosa)
Outline: as §1

[9] = tested on: Italian ryegrass (Lolium multiflorum)
Outline: as §1

[10] = tested on: barnyardgrass (Echinochloa crus-galli)
Outline: as §1

[11] = tested on: green foxtail (Setaria viridis)
Outline: as §1

[12] = tested on: annual bluegrass (Poa annua)
Outline: as §1

[13] = tested on: common ragweed (Ambrosia elatior)
Outline: as §1

[14] = tested on: field bindweed (Convolvulus arvensis)
Outline: as §1

[15] = Postemergence, 250 g ai/ha, scale 0 to 100
[16] = Postemergence, 125 g ai/ha, scale 0 to 100
[17] = Postemergence, 375 g ai/ha, scale 0 to 100
[18] = Preemergence, 62 g ai/ha, scale 0-100
[19] = Preemergence, 125 g ai/ha, scale 0-100
[20] = Preemergence, 250 g ai/ha, scale 0-100
[21] = Preemergence, 500 g ai/ha, scale 0 to 100
[22] = Preemergence, 375 g ai/ha, scale 0 to 100
[23] = Postemergence, 500 g ai/ha, scale 0 to 100
[24] = Postemergence, 62 g ai/ha, scale 0 to 100
[25] = Preemergence, 500 g ai/ha, scale 0-100

## CCOC(=O)c1nc(C2CC2)nc(N)c1Br [Compound 1, ethyl 6-amino-5-bromo-2-cyclopropyl-4-pyrimidinecarboxylate]
[1]; [15]
  Plant response rating, Chickweed: 95
[1]; [16]
  Plant response rating, Chickweed: 95
[1]; [17]
  Plant response rating, Chickweed: 100
[1]; [18]
  Plant response rating, Chickweed: 70
[1]; [19]
  Plant response rating, Chickweed: 95
[1]; [20]
  Plant response rating, Chickweed: 95
[1]; [21]
  Plant response rating, Chickweed: 100
[1]; [22]
  Plant response rating, Chickweed: 100
[2]; [15]
  Plant response rating, Surinam Grass: 85
[2]; [23]
  Plant response rating, Surinam Grass: 90
[2]; [24]
  Plant response rating, Surinam Grass: 30
[2]; [16]
  Plant response rating, Surinam Grass: 60
[2]; [17]
  Plant response rating, Surinam Grass: 90
[2]; [18]
  Plant response rating, Surinam Grass: 95
[2]; [19]
  Plant response rating, Surinam Grass: 95
[2]; [20]
  Plant response rating, Surinam Grass: 95
[2]; [25]
  Plant response rating, Surinam Grass: 95
[2]; [21]
  Plant response rating, Surinam Grass: 100
[3]; [15]
  Plant response rating, Bromegrass, Downy: 60
[3]; [23]
  Plant response rating, Bromegrass, Downy: 80
[3]; [24]
  Plant response rating, Bromegrass, Downy: 30
[3]; [16]
  Plant response rating, Bromegrass, Downy: 30
[3]; [17]
  Plant response rating, Bromegrass, Downy: 70
[3]; [18]
  Plant response rating, Bromegrass, Downy: 0
[3]; [19]
  Plant response rating, Bromegrass, Downy: 20
[3]; [20]
  Plant response rating, Bromegrass, Downy: 95
[3]; [21]
  Plant response rating, Bromegrass, Downy: 95
[3]; [22]
  Plant response rating, Bromegrass, Downy: 95
[4]; [15]
  Plant response rating, Bermudagrass: 40
[4]; [23]
  Plant response rating, Bermudagrass: 50
[4]; [24]
  Plant response rating, Bermudagrass: 25
[4]; [16]
  Plant response rating, Bermudagrass: 25
[4]; [17]
  Plant response rating, Bermudagrass: 40
[4]; [18]
  Plant response rating, Bermudagrass: 10
[4]; [19]
  Plant response rating, Bermudagrass: 20
[4]; [20]
  Plant response rating, Bermudagrass: 30
[4]; [21]
  Plant response rating, Bermudagrass: 70
[4]; [22]
  Plant response rating, Bermudagrass: 70
[5]; [15]
  Plant response rating, Black Mustard: 75
[5]; [23]
  Plant response rating, Black Mustard: 75
[5]; [24]
  Plant response rating, Black Mustard: 60
[5]; [16]
  Plant response rating, Black Mustard: 75
[5]; [17]
  Plant response rating, Black Mustard: 75
[5]; [18]
  Plant response rating, Black Mustard: 30
[5]; [19]
  Plant response rating, Black Mustard: 80
[5]; [20]
  Plant response rating, Black Mustard: 85
[5]; [21]
  Plant response rating, Black Mustard: 100
[5]; [22]
  Plant response rating, Black Mustard: 100
[6]; [15]
  Plant response rating, Sandbur: 95
[6]; [23]
  Plant response rating, Sandbur: 95
[6]; [24]
  Plant response rating, Sandbur: 30
[6]; [16]
  Plant response rating, Sandbur: 60
[6]; [17]
  Plant response rating, Sandbur: 95
[6]; [18]
  Plant response rating, Sandbur: 0
[6]; [19]
  Plant response rating, Sandbur: 30
[6]; [20]
  Plant response rating, Sandbur: 70
[6]; [25]
  Plant response rating, Sandbur: 85
[6]; [21]
  Plant response rating, Sandbur: 85
[7]; [15]
  Plant response rating, Guineagrass: 95
[7]; [23]
  Plant response rating, Guineagrass: 95
[7]; [24]
  Plant response rating, Guineagrass: 60
[7]; [16]
  Plant response rating, Guineagrass: 70
[7]; [18]
  Plant response rating, Guineagrass: 70
[7]; [19]
  Plant response rating, Guineagrass: 70
[7]; [20]
  Plant response rating, Guineagrass: 85
[7]; [21]
  Plant response rating, Guineagrass: 100
[7]; [22]
  Plant response rating, Guineagrass: 100
[8]; [15]
  Plant response rating, Prickly Sida: 90
[8]; [23]
  Plant response rating, Prickly Sida: 95
[8]; [24]
  Plant response rating, Prickly Sida: 70
[8]; [16]
  Plant response rating, Prickly Sida: 70
[8]; [17]
  Plant response rating, Prickly Sida: 95
[8]; [18]
  Plant response rating, Prickly Sida: 70
[8]; [19]
  Plant response rating, Prickly Sida: 100
[8]; [20]
  Plant response rating, Prickly Sida: 100
[8]; [25]
  Plant response rating, Prickly Sida: 100
[8]; [21]
  Plant response rating, Prickly Sida: 100
[9]; [15]
  Plant response rating, Ryegrass, Italian: 40
[9]; [23]
  Plant response rating, Ryegrass, Italian: 40
[9]; [24]
  Plant response rating, Ryegrass, Italian: 0
[9]; [16]
  Plant response rating, Ryegrass, Italian: 10
[9]; [17]
  Plant response rating, Ryegrass, Italian: 40
[9]; [18]
  Plant response rating, Ryegrass, Italian: 0
[9]; [19]
  Plant response rating, Ryegrass, Italian: 10
[9]; [20]
  Plant response rating, Ryegrass, Italian: 30
[9]; [25]
  Plant response rating, Ryegrass, Italian: 95
[9]; [21]
  Plant response rating, Ryegrass, Italian: 95
[10]; [15]
  Plant response rating, Barnyardgrass: 70
[10]; [23]
  Plant response rating, Barnyardgrass: 75
[10]; [24]
  Plant response rating, Barnyardgrass: 60
[10]; [16]
  Plant response rating, Barnyardgrass: 60
[10]; [17]
  Plant response rating, Barnyardgrass: 70
[10]; [18]
  Plant response rating, Barnyardgrass: 0
[10]; [19]
  Plant response rating, Barnyardgrass: 20
[10]; [20]
  Plant response rating, Barnyardgrass: 50
[10]; [21]
  Plant response rating, Barnyardgrass: 70
[10]; [22]
  Plant response rating, Barnyardgrass: 70
[11]; [15]
  Plant response rating, Foxtail, Green: 30
[11]; [23]
  Plant response rating, Foxtail, Green: 60
[11]; [24]
  Plant response rating, Foxtail, Green: 10
[11]; [16]
  Plant response rating, Foxtail, Green: 20
[11]; [17]
  Plant response rating, Foxtail, Green: 50
[11]; [18]
  Plant response rating, Foxtail, Green: 10
[11]; [19]
  Plant response rating, Foxtail, Green: 10
[11]; [20]
  Plant response rating, Foxtail, Green: 50
[11]; [21]
  Plant response rating, Foxtail, Green: 90
[11]; [22]
  Plant response rating, Foxtail, Green: 90
[12]; [15]
  Plant response rating, Bluegrass: 40
[12]; [23]
  Plant response rating, Bluegrass: 50
[12]; [24]
  Plant response rating, Bluegrass: 20
[12]; [16]
  Plant response rating, Bluegrass: 30
[12]; [17]
  Plant response rating, Bluegrass: 50
[12]; [18]
  Plant response rating, Bluegrass: 10
[12]; [19]
  Plant response rating, Bluegrass: 30
[12]; [20]
  Plant response rating, Bluegrass: 85
[12]; [21]
  Plant response rating, Bluegrass: 85
[13]; [15]
  Plant response rating, Ragweed: 95
[13]; [23]
  Plant response rating, Ragweed: 100
[13]; [24]
  Plant response rating, Ragweed: 75
[13]; [16]
  Plant response rating, Ragweed: 95
[13]; [17]
  Plant response rating, Ragweed: 100
[13]; [18]
  Plant response rating, Ragweed: 50
[13]; [19]
  Plant response rating, Ragweed: 95
[13]; [20]
  Plant response rating, Ragweed: 100
[13]; [25]
  Plant response rating, Ragweed: 100
[13]; [21]
  Plant response rating, Ragweed: 100
[14]; [15]
  Plant response rating, Bindweed, Field: 95
[14]; [23]
  Plant response rating, Bindweed, Field: 95
[14]; [24]
  Plant response rating, Bindweed, Field: 90
[14]; [16]
  Plant response rating, Bindweed, Field: 95
[14]; [17]
  Plant response rating, Bindweed, Field: 95
[14]; [18]
  Plant response rating, Bindweed, Field: 95
[14]; [19]
  Plant response rating, Bindweed, Field: 100
[14]; [20]
  Plant response rating, Bindweed, Field: 100
[14]; [21]
  Plant response rating, Bindweed, Field: 100
[14]; [22]
  Plant response rating, Bindweed, Field: 100
